Source: US20060079453A1, “Hla binding peptides and their uses” (priority 2002, published 2006)
Read-outs that look alike come from different tables or passages of the source. No end group written: not given here.

Experiments:
Assay in all cases: biochemical
Assay type in all cases: binding
HLA-B*4001 = HLA-B*4001 (Homo sapiens, UniProt P01889, A65T/A93T/A95T/D138N/D98Y/E176V/E69K/N87E/Q56L/Q94N/R180L/S121R/S35A/S48T/T167S/V36M/W171L/Y33H/Y91S)
HLA-B*4002 = HLA-B*4002 (Homo sapiens, UniProt P01889, A65T/A93T/A95T/D138N/D201E/D98Y/E176V/E204Q/E69K/K202T/N87E/Q56L/Q94N/R180L/S48T/Y33H/Y91S)
HLA-B*4403 = HLA-B*4403 (Homo sapiens, UniProt P01889, A223V/A65T/A93T/A95T/D201E/D98Y/E176V/E187L/E204Q/E69K/G107R/H137Y/K202T/L105A/L119I/N104T/N87E/Q56L/Q94N/R106L/R155S/R180L/S101N/S121R/S35A/S48T/T118I/V36M/W191S/Y140D/Y91S)
HLA-B*1801 = HLA-B*1801 (Homo sapiens, UniProt P01889, A329T/A93T/A95T/C349S/D201E/D54G/D98Y/E176V/E187T/E204Q/E69T/K202T/Q94N/R155S/R180L/S121R/V306I/Y140S/Y195H/Y33H/Y91S)
HLA-B*4402 = HLA-B*4402 (Homo sapiens, UniProt P01889, A223V/A65T/A93T/A95T/D201E/D98Y/E176V/E187L/E204Q/E69K/G107R/H137Y/K202T/L105A/L119I/N104T/N87E/Q56L/Q94N/R106L/R155S/R180D/S101N/S121R/S35A/S48T/T118I/V36M/W191S/Y140D/Y91S)
HLA-B*4501 = HLA-B*4501 (Homo sapiens, UniProt P01889, A329T/A65T/A93T/A95T/C349S/D138N/D201E/D98Y/E176V/E187L/E204Q/E69K/H137Y/K202T/L119W/N87E/Q56L/Q94N/R155S/R180D/S121R/S35A/S48T/V127L/V306I/V36M/W191S/Y140L/Y33H/Y91S)
HLA-DR DRB1*0301 (DR3) = HLA-DR DRB1*0301 (DR3) (Homo sapiens, UniProt P01903+P01911, A100K/A102G/A103R/A169T/F55Y/I96L/K41T/L162R/M171V/P40S/Q125H/Q178H/Q39Y/R42S/S66N/T106N/T262R/W38E/Y61H)
Sequence of HLA-DR DRB1*0301 (DR3) (P01903 26-254 limits assumed, other chains not shown): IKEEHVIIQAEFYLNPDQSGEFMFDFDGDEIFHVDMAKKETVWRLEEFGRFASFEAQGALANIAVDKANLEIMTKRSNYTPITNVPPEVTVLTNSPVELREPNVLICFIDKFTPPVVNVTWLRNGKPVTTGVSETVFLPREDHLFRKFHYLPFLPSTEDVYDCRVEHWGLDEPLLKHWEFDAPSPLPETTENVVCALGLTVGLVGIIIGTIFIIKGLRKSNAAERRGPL

HLA-DR DRB1*0405 (DR4) = HLA-DR DRB1*0405 (DR4) (Homo sapiens, UniProt P01903+P01911, A100R/A169T/D86S/F76Y/I96L/K127E/L162R/M171V/N62H/P40V/Q125Y/R42H/S133A/S149N/S66Y/V115G/V209L/W38E); conditions: DRB1 *0405
HLA-DR DRB1*0802 (DR8) = HLA-DR DRB1*0802 (DR8) (Homo sapiens, UniProt P01903+P01911, A100R/A103L/A169T/F76Y/H45Y/I96F/K41T/L162R/M171V/P40S/Q125H/Q178H/Q39Y/Q99D/R218S/R42G/S66Y/V115G/W38E)
HLA-DR DRB1*0401 (DR4) = HLA-DR DRB1*0401 (DR4) (Homo sapiens, UniProt P01903+P01911, A100K/A169T/F76Y/I96L/K127E/L162R/M171V/N62H/P40V/Q125Y/R42H/S133A/S149N/S66Y/V115G/V209L/W38E); conditions: DRB1 *0401
HLA-DR DRB1*0701 (DR7) = HLA-DR DRB1*0701 (DR7) (Homo sapiens, UniProt P01903+P01911, A100R/A102G/A103Q/D57E/D86V/E43K/F76Y/K127E/L162R/M171V/P40G/Q125H/Q99D/R33Q/R42Y/R54Q/S133A/S66F/T210M/V115G/Y107V/Y59L/Y89S); conditions: DRB1 *0701
HLA-DR DRB1*1101 (DR11) = HLA-DR DRB1*1101 (DR11) (Homo sapiens, UniProt P01903+P01911, A100R/A169T/A87E/I96F/K41T/L162R/M171V/P40S/Q125H/Q178H/Q39Y/Q99D/R42S/S66Y/T262R/V115G/W38E); conditions: DRB1 *1101
Sequence of HLA-DR DRB1*1101 (DR11) (P01903 26-254 limits assumed, other chains not shown): as above

HLA-DR DRB1*0901 (DR9) = HLA-DR DRB1*0901 (DR9) (Homo sapiens, UniProt P01903+P01911, A100R/A103E/D57H/D86V/F55Y/F60I/F76Y/I96F/K127E/L162R/M171V/P40D/Q125H/Q99R/R33Q/R42F/S133A/S66N/T210M/V115G/W38K/Y107V/Y59G/Y89S); conditions: DRB1 *0901
HLA-DR DRB1*1501 (DR15) = HLA-DR DRB1*1501 (DR15) (Homo sapiens, UniProt P01903+P01911); conditions: DRBI *1501
HLA-DR DRB1*1302 (DR13) = HLA-DR DRB1*1302 (DR13) (Homo sapiens, UniProt P01903+P01911, A100E/A169T/K41T/L162R/M171V/P40S/Q125H/Q178H/Q39Y/Q99D/R42S/S66N/T262R/V115G/W38E/Y61H); conditions: DRBI *1302
Sequence of HLA-DR DRB1*1302 (DR13) (P01903 26-254 limits assumed, other chains not shown): as above

HLA-DR DRB1*0101 (DR1) = HLA-DR DRB1*0101 (DR1) (Homo sapiens, UniProt P01903+P01911, A100R/D57E/F55L/F60I/F76Y/I96L/L162R/M171V/P40L/Q125E/R42F/V115G/Y59C); conditions: DRB1 *0101
HLA-DR DRB3*0101 (DR52) = HLA-DR DRB3*0101 (DR52) (Homo sapiens, UniProt P01903+P79483)
HLA-DR DRB5*0101 (DR51) = HLA-DR DRB5*0101 (DR51) (Homo sapiens, UniProt P01903+Q30154); conditions: DRB5 *0101

## AENLWVTNY
HLA-B*4001
  IC50: 865 nM
HLA-B*4002
  IC50: 948 nM
HLA-B*4403
  IC50: 74 nM
HLA-B*1801
  IC50: 730 nM

## AENLWVTPY
HLA-B*4001
  IC50: 274 nM
HLA-B*4403
  IC50: 44 nM
HLA-B*1801
  IC50: 41 nM
HLA-B*4402
  IC50: 127 nM
HLA-B*4501
  IC50: 122 nM

## AENLWVTVI
HLA-B*4001
  IC50: 14 nM
HLA-B*4002
  IC50: 7.3 nM
HLA-B*4403
  IC50: 88 nM
HLA-B*1801
  IC50: 11200 nM
HLA-B*4501
  IC50: 54 nM

## AENLWVTVL
HLA-B*4001
  IC50: 14 nM
HLA-B*4002
  IC50: 13 nM
HLA-B*4403
  IC50: 208 nM
HLA-B*1801
  IC50: 6200 nM
HLA-B*4402
  IC50: 68 nM

## AENLWVTVR
HLA-B*4002
  IC50: 1740 nM
HLA-B*4403
  IC50: 1470 nM
HLA-B*1801
  IC50: 33000 nM
HLA-B*4501
  IC50: 233 nM

## AENLWVTVW
HLA-B*4001
  IC50: 1300 nM
HLA-B*4403
  IC50: 324 nM
HLA-B*1801
  IC50: 22600 nM
HLA-B*4501
  IC50: 204 nM

## AENPWVTVY
HLA-B*4002
  IC50: 224 nM
HLA-B*4403
  IC50: 53 nM
HLA-B*1801
  IC50: 27 nM
HLA-B*4402
  IC50: 18 nM

## AENTWVTVY
HLA-B*4001
  IC50: 1450 nM
HLA-B*4403
  IC50: 166 nM
HLA-B*1801
  IC50: 213 nM
HLA-B*4402
  IC50: 386 nM
HLA-B*4501
  IC50: 442 nM

## AEPLWVTVY
HLA-B*4001
  IC50: 1730 nM
HLA-B*4002
  IC50: 2480 nM
HLA-B*4403
  IC50: 96 nM
HLA-B*1801
  IC50: 310 nM

## AETFYVDGA
HLA-B*4001; B*4001
  IC50: 21600 nM
HLA-B*4403; B*4403
  IC50: 6920 nM
HLA-B*1801; B*1801
  IC50: > 6710 nM
HLA-B*4402; B*4402
  IC50: > 21200 nM
HLA-B*4501; B*4501
  IC50: 38 nM

## AEVLWVTVY
HLA-B*4001
  IC50: 1550 nM
HLA-B*4002
  IC50: 436 nM
HLA-B*4403
  IC50: 390 nM
HLA-B*4402
  IC50: 1520 nM

## ATNLWVTVY
HLA-B*4001; read-out: B*4001
  IC50: 487 nM
HLA-B*4002; read-out: B*4002
  IC50: > 155000 nM
HLA-B*4403; read-out: B*4403
  IC50: > 43000 nM
HLA-B*1801; read-out: B*1801
  IC50: 17600 nM
HLA-B*4501; read-out: B*4501
  IC50: > 49000 nM

## GEFGGYGSV
HLA-B*4002; B*4002
  IC50: 6.4 nM
HLA-B*4403; B*4403
  IC50: 534 nM
HLA-B*4402; B*4402
  IC50: 2340 nM
HLA-B*4501; B*4501
  IC50: 40 nM

## GEISPYPSL
HLA-B*4001
  IC50: 24 nM
HLA-B*4002
  IC50: 1.8 nM
HLA-B*4403
  IC50: 293 nM
HLA-B*1801
  IC50: 19400 nM

## KEKGGLDGL
HLA-B*4001; B*4001
  IC50: 55 nM
HLA-B*4403; B*4403
  IC50: > 10500 nM
HLA-B*1801; B*1801
  IC50: > 22800 nM
HLA-B*4402; B*4402
  IC50: > 81400 nM
HLA-B*4501; B*4501
  IC50: 9930 nM

## LWQLNGRLEYTLKDR
HLA-DR DRB1*0301 (DR3)
  IC50: 511 nM
HLA-DR DRB1*0405 (DR4)
  IC50: 94 nM
HLA-DR DRB1*0802 (DR8)
  IC50: 43300 nM
HLA-B*4403; B*4403
  IC50: 0.11 nM
HLA-DR DRB1*0401 (DR4)
  IC50: 757 nM
HLA-DR DRB1*0701 (DR7)
  IC50: 20200 nM
HLA-DR DRB1*1101 (DR11)
  IC50: 6520 nM
HLA-DR DRB1*0901 (DR9)
  IC50: 16600 nM
HLA-DR DRB1*1501 (DR15)
  IC50: 853 nM
HLA-DR DRB1*1302 (DR13)
  IC50: 2450 nM
HLA-DR DRB1*0101 (DR1)
  IC50: 698 nM
HLA-DR DRB3*0101 (DR52)
  IC50: 4400 nM
HLA-DR DRB5*0101 (DR51)
  IC50: 6000 nM

## NENLWVTVY
HLA-B*4001
  IC50: > 72700 nM
HLA-B*4002
  IC50: 11800 nM
HLA-B*4403
  IC50: 224 nM
HLA-B*1801
  IC50: 38 nM
HLA-B*4402
  IC50: 453 nM

## SEAIHTFQY
HLA-B*4001; B*4001
  IC50: 2900 nM
HLA-B*4002; B*4002
  IC50: 1800 nM
HLA-B*4403; B*4403
  IC50: 16 nM
HLA-B*1801; B*1801
  IC50: 25 nM
HLA-B*4402; B*4402
  IC50: 18 nM

## SEAIYTFQF
HLA-B*4001; B*4001
  IC50: 967 nM
HLA-B*4403; B*4403
  IC50: 20 nM
HLA-B*1801; B*1801
  IC50: 5.7 nM
HLA-B*4402; B*4402
  IC50: 4.8 nM
HLA-B*4501; B*4501
  IC50: 293 nM

## TEPAAVGVGAV
HLA-B*4001; B*4001
  IC50: 930 nM
HLA-B*4403; B*4403
  IC50: 459 nM
HLA-B*1801; B*1801
  IC50: > 8120 nM
HLA-B*4501; B*4501
  IC50: 8240 nM
